Values belong to the molecule of their own block, whether it stands above or below them. Activity calls are given as the source filed them. No cut-off for these calls is given here.
Tests used:
[1] = molecular target: T1, Protein cereblon/Wee1-like protein kinase (Homo sapiens) (UniProt P30291+Q96SW2); test: PROTAC activity at CRBN/Wee1 in human HeLa S3 cells assessed as induction of Wee1 degradation at 1 uM measured after 24 hrs by Western blot analysis relative to control; type: cell-based
[2] = molecular target: T1, Protein cereblon/Wee1-like protein kinase (Homo sapiens); test: PROTAC activity at CRBN/Wee1 in human HeLa S3 cells assessed as induction of Wee1 degradation by measuring reduction in phosphorylation of CDK1 at Tyr15 residue at 1 uM measured after 24 hrs by Western blot analysis relative to control; type: cell-based; parameters: scale not given: the % may be the effect or the level left
[3] = molecular target: T1, Protein cereblon/Wee1-like protein kinase (Homo sapiens); test: PROTAC activity at CRBN/Wee1 in human HeLa S3 cells assessed as induction of Wee1 degradation at 1 uM measured after 4 hrs by Western blot analysis; type: cell-based
[4] = molecular target: T2, von Hippel-Lindau disease tumor suppressor/Wee1-like protein kinase (Homo sapiens) (UniProt P30291+P40337); test: PROTAC activity at VHL/Wee1 in human HeLa S3 cells assessed as induction of Wee1 degradation at 1 uM measured after 24 hrs by Western blot analysis relative to control; type: cell-based
[5] = molecular target: T2, von Hippel-Lindau disease tumor suppressor/Wee1-like protein kinase (Homo sapiens); test: PROTAC activity at VHL/Wee1 in human HeLa S3 cells assessed as induction of Wee1 degradation by measuring reduction in phosphorylation of CDK1 at Tyr15 residue at higher concentration measured after 4 hrs by Western blot analysis; type: cell-based
[6] = molecular target: T2, von Hippel-Lindau disease tumor suppressor/Wee1-like protein kinase (Homo sapiens); test: PROTAC activity at VHL/Wee1 in human HeLa S3 cells assessed as induction of Wee1 degradation by measuring reduction in phosphorylation of CDK1 at Tyr15 residue at 1 uM measured after 24 hrs by Western blot analysis relative to control; type: cell-based; parameters: scale not given: the % may be the effect or the level left
[7] = molecular target: T1, Protein cereblon/Wee1-like protein kinase (Homo sapiens); test: PROTAC activity at CRBN/Wee1 in human HeLa S3 cells assessed as induction of Wee1 degradation at 30 to 10000 nM measured after 4 hrs by Western blot analysis; type: cell-based; conditions: dose 30-10000 nM
[8] = molecular target: T1, Protein cereblon/Wee1-like protein kinase (Homo sapiens); test: PROTAC activity at CRBN/Wee1 in human HeLa S3 cells assessed as induction of Wee1 degradation by measuring reduction in phosphorylation of CDK1 at Tyr15 residue at 100 to 10000 nM measured after 4 hrs by Western blot analysis; type: cell-based; conditions: dose 100-10000 nM
LNCaP = test: Antiproliferative activity against human LNCaP cells assessed as inhibition of cell growth measured after 72 hrs by MTS assay; type: functional, cell-based
BT-549 = test: Antiproliferative activity against human BT-549 cells assessed as inhibition of cell growth measured after 72 hrs by MTS assay; type: functional, cell-based; conditions: BT-549, 72 h
[9] = molecular target: T2, von Hippel-Lindau disease tumor suppressor/Wee1-like protein kinase (Homo sapiens); test: PROTAC activity at VHL/Wee1 in human HeLa S3 cells assessed as induction of Wee1 degradation by measuring reduction in CDK1 phosphorylation at Tyr15 residue at above 1 uM measured after 24 to 48 hrs by Western blot analysis; type: cell-based; conditions: time 24-48 hrs
PC-3 = test: Antiproliferative activity against human PC-3 cells assessed as inhibition of cell growth measured after 72 hrs by MTS assay; type: functional, cell-based; conditions: PC-3, 72 h
[10] = molecular target: T2, von Hippel-Lindau disease tumor suppressor/Wee1-like protein kinase (Homo sapiens); test: PROTAC activity at VHL/Wee1 in human HeLa S3 cells assessed as induction of Wee1 degradation at 1 uM measured after 24 to 48 hrs by Western blot analysis; type: cell-based; conditions: time 24-48 hrs
MCF7 = test: Antiproliferative activity against human MCF7 cells assessed as inhibition of cell growth measured after 72 hrs by MTS assay; type: functional, cell-based; conditions: MCF7, 72 h
[11] = molecular target: T1, Protein cereblon/Wee1-like protein kinase (Homo sapiens); test: PROTAC activity at CRBN/Wee1 in human HeLa S3 cells assessed as induction of Wee1 degradation by measuring reduction in phosphorylation of CDK1 at Tyr15 at above 1 uM measured after 24 to 48 hrs by Western blot analysis; type: cell-based; conditions: time 24-48 hrs
[12] = molecular target: T2, von Hippel-Lindau disease tumor suppressor/Wee1-like protein kinase (Homo sapiens); test: PROTAC activity at VHL/Wee1 in human HeLa S3 cells assessed as induction of Wee1 degradation at 1 uM measured after 4 hrs by Western blot analysis; type: cell-based

Activity [1]: 75%
Activity [2]: 54%
Structure (SMILES): C=CCn1c(=O)c2cnc(Nc3ccc(N4CCN(CCCC(=O)NCCCCCC(=O)NCCNc5cccc6c5C(=O)N(C5CCC(=O)NC5=O)C6=O)CC4)cc3)nc2n1-c1cccc(C(C)(C)O)n1 (configuration not stated)

Activity [3]: Active
Activity [1]: 81%
Activity [2]: 80%
Structure (SMILES): C=CCn1c(=O)c2cnc(Nc3ccc(N4CCN(CCCC(=O)NCCOCCOCC(=O)NCCNc5cccc6c5C(=O)N(C5CCC(=O)NC5=O)C6=O)CC4)cc3)nc2n1-c1cccc(C(C)(C)O)n1 (configuration not stated)

Activity [4]: 68%
Activity [5]: Active
Activity [6]: 53%
Structure (SMILES): C=CCn1c(=O)c2cnc(Nc3ccc(N4CCN(CCCC(=O)NCCCCCCCC(=O)N[C@H](C(=O)N5C[C@H](O)C[C@H]5C(=O)NCc5ccc(-c6scnc6C)cc5)C(C)(C)C)CC4)cc3)nc2n1-c1cccc(C(C)(C)O)n1

Activity [1]: 59%
Activity [2]: 66%
Structure (SMILES): C=CCn1c(=O)c2cnc(Nc3ccc(N4CCN(CCCC(=O)NCCOCCOCCOCCNc5cccc6c5C(=O)N(C5CCC(=O)NC5=O)C6=O)CC4)cc3)nc2n1-c1cccc(C(C)(C)O)n1 (configuration not stated)

Activity [7]: Active
Activity [1]: 21%
Activity [2]: 38%
Structure (SMILES): C=CCn1c(=O)c2cnc(Nc3ccc(N4CCN(CCCC(=O)NCCNc5cccc6c5C(=O)N(C5CCC(=O)NC5=O)C6=O)CC4)cc3)nc2n1-c1cccc(C(C)(C)O)n1 (configuration not stated)

Activity [7]: Active
Activity [1]: 38%
Activity [8]: Active
Activity [2]: 41%
Structure (SMILES): C=CCn1c(=O)c2cnc(Nc3ccc(N4CCN(CCCC(=O)NCCOCCNc5cccc6c5C(=O)N(C5CCC(=O)NC5=O)C6=O)CC4)cc3)nc2n1-c1cccc(C(C)(C)O)n1 (configuration not stated)

Activity [7]: Active
Activity [1]: 23%
Activity [8]: Active
Activity [2]: 39%
Structure (SMILES): C=CCn1c(=O)c2cnc(Nc3ccc(N4CCN(CCCC(=O)NCCCCCCNc5cccc6c5C(=O)N(C5CCC(=O)NC5=O)C6=O)CC4)cc3)nc2n1-c1cccc(C(C)(C)O)n1 (configuration not stated)

Activity [4]: 94%
Activity [6]: 72%
Structure (SMILES): C=CCn1c(=O)c2cnc(Nc3ccc(N4CCN(CCCC(=O)NCCOCCOCCOCC(=O)N[C@H](C(=O)N5C[C@H](O)C[C@H]5C(=O)NCc5ccc(-c6scnc6C)cc5)C(C)(C)C)CC4)cc3)nc2n1-c1cccc(C(C)(C)O)n1

Activity [1]: 96%
Activity [2]: 84%
Structure (SMILES): C=CCn1c(=O)c2cnc(Nc3ccc(N4CCN(CCCC(=O)NCCOCCOCCOCC(=O)NCCNc5cccc6c5C(=O)N(C5CCC(=O)NC5=O)C6=O)CC4)cc3)nc2n1-c1cccc(C(C)(C)O)n1 (configuration not stated)

Activity [4]: 68%
Activity [5]: Active
Activity [6]: 55%
Structure (SMILES): C=CCn1c(=O)c2cnc(Nc3ccc(N4CCN(CCCC(=O)NCCCC(=O)N[C@H](C(=O)N5C[C@H](O)C[C@H]5C(=O)NCc5ccc(-c6scnc6C)cc5)C(C)(C)C)CC4)cc3)nc2n1-c1cccc(C(C)(C)O)n1

IC50 (LNCaP): 3.46 µM
IC50 (BT-549): 1.7 µM
Activity [9]: Active
IC50 (PC-3): 8.7 µM
Activity [10]: Active
IC50 (MCF7): 3.3 µM
Structure (SMILES): C=CCn1c(=O)c2cnc(Nc3ccc(N4CCN(CCCC(=O)N[C@H](C(=O)N5C[C@@H](O)C[C@H]5C(=O)NCc5ccc(-c6scnc6C)cc5)C(C)(C)C)CC4)cc3)nc2n1-c1cccc(C(C)(C)O)n1

IC50 (LNCaP): 0.5 µM
IC50 (BT-549): 0.49 µM
IC50 (PC-3): 8 µM
IC50 (MCF7): 1.1 µM
Structure (SMILES): C=CCn1c(=O)c2cnc(Nc3ccc(N4CCN(C)CC4)cc3)nc2n1-c1cccc(C(C)(C)O)n1 [ADAVOSERTIB]

Activity [4]: 50%
Activity [5]: Active
Activity [6]: 47%
Structure (SMILES): C=CCn1c(=O)c2cnc(Nc3ccc(N4CCN(CCCC(=O)NCCCCCCCCCCC(=O)N[C@H](C(=O)N5C[C@H](O)C[C@H]5C(=O)NCc5ccc(-c6scnc6C)cc5)C(C)(C)C)CC4)cc3)nc2n1-c1cccc(C(C)(C)O)n1

Activity [1]: 41%
Activity [2]: 41%
Structure (SMILES): C=CCn1c(=O)c2cnc(Nc3ccc(N4CCN(CCCC(=O)NCCCCCCCCCCC(=O)NCCNc5cccc6c5C(=O)N(C5CCC(=O)NC5=O)C6=O)CC4)cc3)nc2n1-c1cccc(C(C)(C)O)n1 (configuration not stated)

Activity [1]: 51%
Activity [2]: 78%
Structure (SMILES): C=CCn1c(=O)c2cnc(Nc3ccc(N4CCN(CCCC(=O)NCCOCCOCCOCCOCCOCCNc5cccc6c5C(=O)N(C5CCC(=O)NC5=O)C6=O)CC4)cc3)nc2n1-c1cccc(C(C)(C)O)n1 (configuration not stated)

Activity [1]: 83%
Activity [2]: 88%
Structure (SMILES): C=CCn1c(=O)c2cnc(Nc3ccc(N4CCN(CCCC(=O)NCCCCCCCC(=O)NCCNc5cccc6c5C(=O)N(C5CCC(=O)NC5=O)C6=O)CC4)cc3)nc2n1-c1cccc(C(C)(C)O)n1 (configuration not stated)

IC50 (LNCaP): 11 µM
IC50 (BT-549): 9 µM
Activity [11]: Active
IC50 (PC-3): > 20 µM
IC50 (MCF7): 11 µM
Structure (SMILES): C=CCn1c(=O)c2cnc(Nc3ccc(N4CCN(CCCC(=O)NCCOCCOCCNc5cccc6c5C(=O)N(C5CCC(=O)N(C)C5=O)C6=O)CC4)cc3)nc2n1-c1cccc(C(C)(C)O)n1 (configuration not stated)

Activity [12]: Active
Activity [4]: 108%
Activity [6]: 80%
Structure (SMILES): C=CCn1c(=O)c2cnc(Nc3ccc(N4CCN(CCCC(=O)NCCOCCOCCOCCOCCC(=O)N[C@H](C(=O)N5C[C@H](O)C[C@H]5C(=O)NCc5ccc(-c6scnc6C)cc5)C(C)(C)C)CC4)cc3)nc2n1-c1cccc(C(C)(C)O)n1

Activity [4]: 71%
Activity [5]: Active
Activity [6]: 64%
Structure (SMILES): C=CCn1c(=O)c2cnc(Nc3ccc(N4CCN(CCCC(=O)NCCCCCC(=O)N[C@H](C(=O)N5C[C@H](O)C[C@H]5C(=O)NCc5ccc(-c6scnc6C)cc5)C(C)(C)C)CC4)cc3)nc2n1-c1cccc(C(C)(C)O)n1

Activity [1]: 47%
Activity [2]: 60%
Structure (SMILES): C=CCn1c(=O)c2cnc(Nc3ccc(N4CCN(CCCC(=O)NCCCC(=O)NCCNc5cccc6c5C(=O)N(C5CCC(=O)NC5=O)C6=O)CC4)cc3)nc2n1-c1cccc(C(C)(C)O)n1 (configuration not stated)

Activity [1]: 45%
Activity [2]: 65%
Structure (SMILES): C=CCn1c(=O)c2cnc(Nc3ccc(N4CCN(CCCC(=O)NCCOCCOCCOCCOCCNc5cccc6c5C(=O)N(C5CCC(=O)NC5=O)C6=O)CC4)cc3)nc2n1-c1cccc(C(C)(C)O)n1 (configuration not stated)

Source: ChEMBL document CHEMBL5143606, “Selective Wee1 degradation by PROTAC degraders recruiting VHL and CRBN E3 ubiquitin ligases” (Bioorg Med Chem Lett, 2022)
